Reference: publication PMC6150173, “Tryptophan-Containing Cyclic Decapeptides with Activity against Plant Pathogenic Bacteria” (Molecules : A Journal of Synthetic Chemistry and Natural …, 2017)
Peptide text beside a SMILES is read from it.

Assays:
[1] = tested on: Erwinia amylovora PMV6076; test: Antibacterial activity (MIC), in vitro growth inhibition; type: cell-based; conditions: Table S1, MIC range
In short: (§1)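 MIC determined by in vitro growth inhibition across 0.8, 1.6, 3.1, 6.2, 12.5, 25 and 50 μM peptide. Strains tested: E. amylovora PMV6076, P. syringae pv. syringae EPS94 and X. axonopodis pv. vesicatoria 2133-2.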

[2] = tested on: Pseudomonas syringae pv. syringae EPS94; test: as above; type: cell-based; conditions: Table S1, MIC range
In short: as §1

[3] = tested on: Xanthomonas axonopodis pv. vesicatoria 2133-2; type: cell-based; conditions: Table S1, MIC range
In short: as §1

[4] = tested on: erythrocyte suspensions of human blood; test: Hemolytic activity, hemoglobin release; type: cell-based; conditions: human blood erythrocytes 5% v/v, absorbance 540 nm, percentage compared to melittin, three replicates; for Hemolysis (%) at 50 µM: peptide 50 μM (table prints 50 µM); for Hemolysis (%) at 125 µM: peptide 125 μM (table prints 125 µM)
Description: The hemolytic activity of the compounds was evaluated at 50 and 125 μM by determining hemoglobin release from erythrocyte suspensions of human blood (5% v/v) (Oxoid) using absorbance at 540 nm, as previously described. Three replicates for each peptide concentration were used.

[5] = tested on: Pseudomonas syringae pv. syringae, Xanthomonas axonopodis pv. vesicatoria, and Erwinia amylovora; conditions: cited from earlier work
Description: Combinatorial chemistry constitutes a powerful tool to obtain peptides with improved biological activity against plant pathogens. In particular, we have employed this methodology to design and synthesize a library of cyclic decapeptides with general structure c(X5-Phe-X3-Gln) where X is Lys or Leu. Analysis of internal structural features together with a design of experiments (DOE) allowed establishing the sequence pattern for an optimal biological activity, i.e., c(X^1X^2X^3X^4LysPheLysLysLeuGln) where X^2 ≠ X^3 and X^4 = Lys. […] Cyclic peptides are preferred candidates due to their high conformational rigidity and proteolytic stability. In a previous work, a library of 66 Phe-containing cyclic decapeptides was synthesized from which sequences with high activity against E. amylovora, P. syringae pv. syringae, and X. axonopodis pv. vesicatoria were identified, highlighting c(LysLysLeuLysLysPheLysLysLeuGln) ... || The results obtained support the notion that subtle changes in a peptide sequence may lead to a significant modification of its biological activity. Thus, for example, the Phe→Trp substitution in the lead peptides c(LysLysLeuLysLysPheLysLysLeuGln) (BPC194) and c(LysLeuLysLysLysPheLysLysLeuGln) (BPC198) caused a reduction of the activity. […]

| Compound | MIC Ea [1] [µM] | MIC Pss [2] [µM] | MIC Xav [3] [µM] | Hemolysis (%) at 50 µM [4] [%] | Hemolysis (%) at 125 µM [4] | antibacterial activity in words, Phe peptides [5] |
| --- | --- | --- | --- | --- | --- | --- |
| CC(C)C[C@@H]1NC(=O)[C@H](CCCCN)NC(=O)[C@H](CCC(N)=O)NC(=O)[C@H](CCCCN)NC(=O)[C@H](CCCCN)NC(=O)[C@H](CC(C)C)NC(=O)[C@H](Cc2c[nH]c3ccccc23)NC(=O)[C@H](CC(C)C)NC(=O)[C@H](CCCCN)NC(=O)[C@H](CCCCN)NC1=O [BPC132W, c(KLKKLWLKKQ)] (cyclo(KKLWLKKQKL)) | 12.5 to 25 | 3.1 to 6.2 | 1.6 to 3.1 | 5 | 8% and below 20% |  |
| CC(C)C[C@@H]1NC(=O)[C@H](CCC(N)=O)NC(=O)[C@H](CCCCN)NC(=O)[C@H](CCCCN)NC(=O)[C@H](CC(C)C)NC(=O)[C@H](Cc2c[nH]c3ccccc23)NC(=O)[C@H](CC(C)C)NC(=O)[C@H](CCCCN)NC(=O)[C@H](CCCCN)NC(=O)[C@H](CCCCN)NC1=O [BPC134W, c(LKKKLWLKKQ)] (cyclo(KKKLWLKKQL)) | 25 to 50 | 6.2 to 12.5 | 3.1 to 6.2 | 3 | 4% |  |
| CC(C)C[C@@H]1NC(=O)[C@H](CCCCN)NC(=O)[C@H](CCCCN)NC(=O)[C@H](CCC(N)=O)NC(=O)[C@H](CCCCN)NC(=O)[C@H](CCCCN)NC(=O)[C@H](CC(C)C)NC(=O)[C@H](Cc2c[nH]c3ccccc23)NC(=O)[C@H](CCCCN)NC(=O)[C@H](CC(C)C)NC1=O [BPC136W, c(KKLLKWLKKQ)] (cyclo(KKLLKWLKKQ)) | 6.2 to 12.5 | 6.2 to 12.5 | 3.1 to 6.2 | 1 | 2% |  |
| CC(C)C[C@@H]1NC(=O)[C@H](CCCCN)NC(=O)[C@H](CC(C)C)NC(=O)[C@H](CCCCN)NC(=O)[C@H](CCC(N)=O)NC(=O)[C@H](CCCCN)NC(=O)[C@H](CCCCN)NC(=O)[C@H](CC(C)C)NC(=O)[C@H](Cc2c[nH]c3ccccc23)NC(=O)[C@H](CCCCN)NC1=O [BPC138W, c(KLKLKWLKKQ)] (cyclo(KKQKLKLKWL)) | 25 to 50 | 6.2 to 12.5 | 3.1 to 6.2 | 7 | 14% |  |
| CC(C)C[C@@H]1NC(=O)[C@H](CCC(N)=O)NC(=O)[C@H](CCCCN)NC(=O)[C@H](CCCCN)NC(=O)[C@H](CC(C)C)NC(=O)[C@H](Cc2c[nH]c3ccccc23)NC(=O)[C@H](CCCCN)NC(=O)[C@H](CC(C)C)NC(=O)[C@H](CCCCN)NC(=O)[C@H](CCCCN)NC1=O [BPC140W, c(LKKLKWLKKQ)] (cyclo(KKLKWLKKQL)) | 12.5 to 25 | 6.2 to 12.5 | 3.1 to 6.2 | 31 | 37% |  |
| CC(C)C[C@@H]1NC(=O)[C@H](CCCCN)NC(=O)[C@H](CCC(N)=O)NC(=O)[C@H](CCCCN)NC(=O)[C@H](CCCCN)NC(=O)[C@H](CC(C)C)NC(=O)[C@H](Cc2c[nH]c3ccccc23)NC(=O)[C@H](CCCCN)NC(=O)[C@H](CCCCN)NC(=O)[C@H](CC(C)C)NC1=O [BPC142W, c(KLLKKWLKKQ)] (cyclo(KKQKLLKKWL)) | 12.5 to 25 | 6.2 to 12.5 | 3.1 to 6.2 | 16 | 18% |  |
| CC(C)C[C@@H]1NC(=O)[C@H](CCCCN)NC(=O)[C@H](CC(C)C)NC(=O)[C@H](CCC(N)=O)NC(=O)[C@H](CCCCN)NC(=O)[C@H](CCCCN)NC(=O)[C@H](CC(C)C)NC(=O)[C@H](Cc2c[nH]c3ccccc23)NC(=O)[C@H](CCCCN)NC(=O)[C@H](CCCCN)NC1=O [BPC144W, c(LKLKKWLKKQ)] (cyclo(KKQLKLKKWL)) | 12.5 to 25 | 3.1 to 6.2 | 1.6 to 3.1 | 16 | 21% |  |
| CC(C)C[C@@H]1NC(=O)[C@H](CCC(N)=O)NC(=O)[C@H](CCCCN)NC(=O)[C@H](CCCCN)NC(=O)[C@H](CC(C)C)NC(=O)[C@H](Cc2c[nH]c3ccccc23)NC(=O)[C@H](CCCCN)NC(=O)[C@H](CCCCN)NC(=O)[C@H](CCCCN)NC(=O)[C@H](CC(C)C)NC1=O [BPC146W, c(LLKKKWLKKQ)] (cyclo(KKKWLKKQLL)) | 25 to 50 | 3.1 to 6.2 | 3.1 to 6.2 | 4 | 7% |  |
| CC(C)C[C@@H]1NC(=O)[C@H](CCCCN)NC(=O)[C@H](CC(C)C)NC(=O)[C@H](CC(C)C)NC(=O)[C@H](CCCCN)NC(=O)[C@H](CCC(N)=O)NC(=O)[C@H](CCCCN)NC(=O)[C@H](CCCCN)NC(=O)[C@H](CCCCN)NC(=O)[C@H](Cc2c[nH]c3ccccc23)NC1=O [BPC154W, c(KLLKLWKKKQ)] (cyclo(KKKQKLLKLW)) | 25 to 50 | 3.1 to 6.2 | 1.6 to 3.1 | 4 | 7% |  |
| CC(C)C[C@@H]1NC(=O)[C@H](CCCCN)NC(=O)[C@H](CCCCN)NC(=O)[C@H](CC(C)C)NC(=O)[C@H](CC(C)C)NC(=O)[C@H](CCC(N)=O)NC(=O)[C@H](CCCCN)NC(=O)[C@H](CCCCN)NC(=O)[C@H](CCCCN)NC(=O)[C@H](Cc2c[nH]c3ccccc23)NC1=O [BPC158W, c(LLKKLWKKKQ)] (cyclo(KKKQLLKKLW)) | 12.5 to 25 | 12.5 to 25 | 1.6 to 3.1 | 10 | 14% |  |
| CC(C)C[C@@H]1NC(=O)[C@H](CCCCN)NC(=O)[C@H](CCCCN)NC(=O)[C@H](Cc2c[nH]c3ccccc23)NC(=O)[C@H](CCCCN)NC(=O)[C@H](CC(C)C)NC(=O)[C@H](CC(C)C)NC(=O)[C@H](CC(C)C)NC(=O)[C@H](CCCCN)NC(=O)[C@H](CCC(N)=O)NC1=O [BPC184W, c(KLLLKWKKLQ)] (cyclo(KKLQKLLLKW)) | 25 to 50 | 3.1 to 6.2 | 1.6 to 3.1 | 22 | 32% |  |
| CC(C)C[C@@H]1NC(=O)[C@H](CCCCN)NC(=O)[C@H](CCCCN)NC(=O)[C@H](Cc2c[nH]c3ccccc23)NC(=O)[C@H](CCCCN)NC(=O)[C@H](CC(C)C)NC(=O)[C@H](CC(C)C)NC(=O)[C@H](CCCCN)NC(=O)[C@H](CC(C)C)NC(=O)[C@H](CCC(N)=O)NC1=O [BPC192W, c(LKLLKWKKLQ)] (cyclo(KKLQLKLLKW)) | 25 to 50 | 12.5 to 25 | 6.2 to 12.5 | 13 | 17% |  |
| CC(C)C[C@@H]1NC(=O)[C@H](CCCCN)NC(=O)[C@H](CCCCN)NC(=O)[C@H](CCC(N)=O)NC(=O)[C@H](CC(C)C)NC(=O)[C@H](CCCCN)NC(=O)[C@H](CCCCN)NC(=O)[C@H](Cc2c[nH]c3ccccc23)NC(=O)[C@H](CCCCN)NC(=O)[C@H](CCCCN)NC1=O [BPC194W, c(KKLKKWKKLQ)] (cyclo(KKLKKWKKLQ)) | 12.5 to 25 | 12.5 to 25 | 6.2 to 12.5 | 3 | 5% |  |
| CC(C)C[C@@H]1NC(=O)[C@H](CCCCN)NC(=O)[C@H](CCCCN)NC(=O)[C@H](Cc2c[nH]c3ccccc23)NC(=O)[C@H](CCCCN)NC(=O)[C@H](CCCCN)NC(=O)[C@H](CCCCN)NC(=O)[C@H](CC(C)C)NC(=O)[C@H](CCCCN)NC(=O)[C@H](CCC(N)=O)NC1=O [BPC198W, c(KLKKKWKKLQ)] (cyclo(KKKWKKLQKL)) | 25 to 50 | 25 to 50 | 3.1 to 6.2 | 2 | 4% |  |
| cyclo(LKKKKFLLKQ) [BPC108] |  |  |  |  |  | poorly active |
| cyclo(LKKKLFKKLQ) [BPC086] |  |  |  |  |  | poorly active |
